Key:
pS345-Chk1 = experiment: Immunoblot of ATR-Chk1 response to Top1 inhibitors with or without VE-821: Chk1; type: cell-based; conditions: for phosphorylation of Chk1 (serine 345): Top1 inhibitor treatment
Procedure: (§1) For these studies, auto-phosphorylation of ATR on threonine 1989, a DNA damage activation site (Nam et al., J Biol Chem 2011; 286(33):28707-14; Liu et al., Molecular cell 2011; 43(2):192-202), was determined, as well as Chk1 phosphorylation on serine 345, which is mediated by ATR. Histone H2AX phosphorylation was also determined on serine 139 (γH2AX), a validated pharmacodynamic biomarker for DNA damage and apoptosis (Bonner et al., Nat Rev Cancer 2008; 8(12):957-67; Kinders et al., Clin Cancer Res 2010; 16(22):5447-57; Solier et al., Mol Cell Biol 2009; 29(1):68-82).
(§2) Briefly, cell lysates were electrophoresed on 4-20% Tris-glycine or 3-8% Tris-acetate polyacrylamide gels, and transferred onto nitrocellulose membranes. Antibodies against GAPDH, ATR and pS345-Chk1 were obtained from Cell Signaling Technologies, γH2AX and pT68-Chk2 from Abcam and Top1 from BD Biosciences. The antibody against pT1989-ATR is disclosed above. After incubation with secondary antibody, signals were detected by enhanced chemiluminescence (Pierce).

pT68-Chk2 = experiment: Immunoblot of ATR-Chk1 response to Top1 inhibitors with or without VE-821: Chk2; type: cell-based; conditions: for phosphorylation of Chk2 (threonine 68): Top1 inhibitor treatment
Procedure: as §2, with “[…]-Chk1” for “pS345-Chk1”, “[…]-Chk2” for “pT68-Chk2”, “[…]-ATR” for “pT1989-ATR”

γH2AX = experiment: Immunoblot of ATR-Chk1 response to Top1 inhibitors with or without VE-821: γH2AX; type: cell-based; conditions: for phosphorylation of H2AX (γH2AX): Top1 inhibitor treatment
Procedure: as §1, §2

pT1989-ATR = experiment: Immunoblot of ATR-Chk1 response to Top1 inhibitors with or without VE-821: ATR; type: cell-based; conditions: for phosphorylation of ATR (threonine 1989): Top1 inhibitor treatment, 0, 4, 8, 18 h after removal
Procedure: as §1, §2

phospho-ATR (pT1989) = experiment: Western blot of phospho-ATR (pT1989) in drug-treated cells; type: cell-based, human
Procedure: Cell growth was monitored 2-3 weeks after fusion. Hybridoma supernatants were screened by standard colorimetric ELISA against BSA-conjugated peptides as described in section C. The screening process consisted of a Primary screen on 40 plates (using bleed 2 of E5571 at 1:100 dilution as a Positive control) clones (44) with O.D. greater than 0.5 were considered putatively positive and were further expanded to 24-well plate. Confirmatory screen was performed and 6 clones were confirmed positive against phospho-specific peptides (Table 4). Additional screening was performed by ELISA using the same assay as for bleed screening (FIG. 5). Western blotting was done on selected clones #7, 27 and 35 for subcloning (FIG. 6). DLD-1 cells and DLD-1 Seckel cells with and without gemcitabine treatment (100 nM for 4 h) were lysed with cell extraction buffer (Invitrogen, catalog # FNN0011). Lysates were run on NUPAGE® NOVEX® 3-8% gels (Invitrogen, catalog # EA0378BOX) and transferred to nitrocellulose membranes (Invitrogen catalog # IB3010-01) using the IBLOT® apparatus from Invitrogen. Blots were blocked with Licor ODYSSEY® blocking buffer (LiCor, catalog #927-40010) and incubated overnight with hybridoma supernatants (1:30). Blots were then washed with PBS-T (0.05% TWEEN®) and incubated with Licor goat anti-rabbit IR-680 antibody for 1 h at room temperature. Blots were then washed with phosphate-buffered saline with 0.05% TWEEN®-20 (PBS-T) and scanned at 700 nm on Licor ODYSSEY® scanner.
Details for lysate preparation and Western blotting are given in Example I, section E. The antibody detected a single band at about 250 kDa consistent with the predicted molecular weight (MW) for ATR. The antibody also detected an increase in phospho-ATR (pT1989) upon gemcitabine (SIGMA) treatment which is known to increase ATR activity (Mol. Pharmacol. (2005), 68, 1636-1644). Finally, an isogenic pair of DLD-1 cells was used.
Cells were treated for 4 hours with either vehicle (DMSO, 0.01%), 150 nM Gemcitabine (Sigma), 1 uM ATR inhibitor VE-821 or combination of drugs. The antibody detected a single band at about 250 kDa consistent with the predicted MW for ATR. The antibody also detected an increase in phospho-ATR (pT1989) upon Gemcitabine treatment, which is known to increase ATR activity (Molecular Pharmacology (2005) 68, 1636-1644). […] Lysates were prepared in buffer as follows: 0.94 ml RIPA buffer, 40 μl Protease Inhibitor Cocktail (25× stock, Roche Cat#11697498001), 10 μl Phosphatase Inhibitor (Roche Cat#04906845001) and 10 μl PMSF (Sigma cat#93482). Lysates were sonicated prior to use. Lysates were run on 3-8% Tris-Acetate gels from NOVEX® (Invitrogen, Cat# EA0378BOX) and transferred to nitrocellulose membranes using the IBLOT® transfer apparatus, program setting P3, 20V, 13 min. Blots were blocked with Licor ODYSSEY® blocking buffer and incubated overnight with Clone 7 hybridoma supernatant (1:30). B lots were then washed with PBS-T (0.05% Tween) and incubated with Licor goat anti-rabbit IR-680 antibody for 1 h at room temperature. […]
For these studies, DLD-1 parental and DLD-1 Seckel (Horizon) cells were treated with gemcitabine for 4 hours. Clone 7A7 detected ATR in the parental DLD-1 cell lysate by Western blotting and detects an increase in pT1989-ATR with gemcitabine treatment as expected. In contrast, the level of pT-1989 detected by clone 7A7 was much lower in the DLD-1 Seckel cells which have suppressed ATR expression.

[1] = tested on: ATR-pT1989 foci in A2780 xenografts; experiment: pATR T1989 immunofluorescence assay in A2780 xenografts; type: in vivo, mice; conditions: 1.2 or 6.0 mg/kg intraperitoneally; 4, 7 and 24 hours; dose and time dependent
Procedure: In vivo studies were performed. A2780 xenografts were evaluated in mice treated with 1.2 mg/kg cisplatin or 6.0 mg/kg cisplatin for 4, 7 and 24 hours. […] The following methods were used in these studies:
Xenograft Samples and In Vivo Quantitation: Athymic nu/nu mice were implanted with A2780 cells as previously described (Kinders et al., Clin Cancer Res 2010:16(22):5447-57). Xenograft quadrants were collected and flash frozen from mice following exposure to vehicle (0.9% saline) or various doses (1.2, 6.0 mg/kg) of cisplatin administered intraperitoneally. The samples were fixed in neutral-buffered formalin and paraffin-embedded as previously described (Kinders et al., Clin Cancer Res 2010; 16(22):5447-57). Animal care was provided in accordance with the procedures outlined in the “Guide for Care and Use of Laboratory Animals” (National Research Council; 1996; National Academy Press; Washington, D.C.), and all studies were conducted under an approved Animal Care and Use Committee protocol. […]
Quantitative Marker Analysis: The DEFINIENS TISSUE STUDIO® (Version 2.0.3; Build 2057) software program was used for analysis of foci count/nucleus. For the analysis, fields were scored first for the number of nuclei and then individual counts of the number of foci count/per nucleus were performed. […]

[2] = tested on: ATR phosphorylation at pT1989; experiment: ATR-pT1989 IFA on FFPE pellets of drug-treated cells; type: cell-based, human
Procedure: Formalin fixed paraffin embedded (FFPE) pellets were generated using cells expressing WT ATR (HT29, DLD-1 Parental) or mutated ATR (DLD-1 Seckel (Horizon)), with and without gemcitabine (SIGMA) treatment to induce ATR phosphorylation at pT1989 (Mol. Pharmacol. 2005, 68, 1636-1644). Cells were harvested by trypsinization, transferred into a sterile 50 ml conical centrifuge tubes with media containing 10% serum and pelleted at 1000×g for 5 minutes. Medium was replaced with fresh serum containing medium and centrifuged again at 1000×g, 5 minutes. All but 1 ml (approximately) of medium was removed and the pellet was re-suspended by flicking the tube. Suspended cells were transferred using a 2 ml pipette into a clean 1.5 ml conical Eppendorf tube. Cells were pelleted for 30 seconds at 8,000 rpm in an Eppendorf micro centrifuge. The supernatant was discarded leaving approximately 100-200 ul behind. The cell pellet was loosened by gently flicking the tube and Thrombin stock (8 ul of 1 unit/ul water, Sigma #T-7009) was added. The cells were mixed briefly by gently flicking the tube then held on ice for 2-5 minutes. Fibrinogen stock (5 ul of at 10 mg/ml water, Sigma #F-3879) was added, and the tube was incubated for 2-5 minutes at room temperature. Clotted cells were pelleted by a brief centrifuge for 20 seconds at 10K. […]

[3] = VE-821 with Top1 inhibitor (CPT or LMP-400)

CC[C@@]1(O)C(=O)OCc2c1cc1n(c2=O)Cc2cc3ccccc3nc2-1 [CPT]
phosphorylation of Chk1 (serine 345) (pS345-Chk1): quickly induced the rapid phosphorylation
phosphorylation of Chk2 (threonine 68) (pT68-Chk2): quickly induced the rapid phosphorylation
phosphorylation of H2AX (γH2AX) (γH2AX): quickly induced the rapid phosphorylation
phosphorylation of ATR (threonine 1989) (pT1989-ATR): delayed and best detectable after drug removal

COc1cc2c3c(n(CCCN4CCOCC4)c(=O)c2cc1OC)-c1cc2c(cc1C3=O)OCO2 [LMP-400]
phosphorylation of Chk1 (serine 345) (pS345-Chk1): quickly induced the rapid phosphorylation
phosphorylation of Chk2 (threonine 68) (pT68-Chk2): quickly induced the rapid phosphorylation
phosphorylation of H2AX (γH2AX) (γH2AX): quickly induced the rapid phosphorylation
effects on checkpoint phosphorylation relative to CPT (pT1989-ATR): more pronounced effects than CPT
phosphorylation of ATR (threonine 1989) (pT1989-ATR): delayed and best detectable after drug removal

CS(=O)(=O)c1ccc(-c2cnc(N)c(C(=O)Nc3ccccc3)n2)cc1 [VE-821]
phospho-ATR (pT1989) level by Western blot compared to gemcitabine alone (phospho-ATR (pT1989); 1 uM VE-821 combined with 150 nM gemcitabine, 4 hours, HT-29 and LoVo): reduced
phospho-ATR (pT1989) level by Western blot compared to vehicle (phospho-ATR (pT1989); 1 uM alone, 4 hours, HT-29 and LoVo): did not affect
phosphorylation of Chk1 (pS345-Chk1; [3]): inhibited the phosphorylation
Chk2 phosphorylation (pT68-Chk2; [3]): without reducing Chk2 phosphorylation
γH2AX induction over time (γH2AX; [3]): strongly induced
phosphorylation of ATR (pT1989-ATR; [3]): inhibited the phosphorylation

N.N.[Cl][Pt][Cl] [cisplatin]
ATR foci in treated samples compared to vehicle [1]: increase in ATR foci

Nc1ccn([C@@H]2O[C@H](CO)[C@@H](O)C2(F)F)c(=O)n1 [gemcitabine]
phospho-ATR (pT1989) level by Western blot (phospho-ATR (pT1989); 150 nM, 4 hours, HT-29 and LoVo): increase
pT1989-ATR level by Western blot (phospho-ATR (pT1989); 4 hours, parental DLD-1 cells): increase
phospho-ATR (pT1989) level by Western blot (phospho-ATR (pT1989); gemcitabine treatment, HT-29, LoVo and DLD-1 lysates): increase
signal intensity for pT1989 staining compared to untreated cells ([2]; FFPE HT29, DLD-1 cells): higher signal intensity
signal intensity for pT1989 staining compared to untreated cells ([2]; HT29 cells, 150 nM, 4 hrs or 24 hrs): higher signal intensity

Reference: patent publication US9644037B2, “Antibodies that specifically bind ataxia telangiectasia-mutated and RAD3-related kinase phosphorylated at position 1989 and their use” (THE UNITED STATES OF AMERICA, AS REPRESENTED BY THE …, priority 2013, dated 2017)
